ChEMBL document CHEMBL1159168, “Unsaturated epoxy-C-glycosides. A new class of antitumor compounds with DNA cleavage properties” (Bioorg Med Chem Lett, 1994)
“And” between values parts separate entries of the source, which are not always exact repeats. Identical values can stand only once.

Experiments:
Raji = assay: In vitro cytotoxicity against Raji cells from human lymphoma; assay type: functional, cell-based
LFCl2A = assay: In vitro cytotoxicity against LFCL2A cells from rat hepatocarcinoma; assay type: functional, cell-based
[1] = Rattus norvegicus, LFCl2A, read-out: IC50

In the case of CC1=CCCCC1[C@@H]1C=C[C@@]2(CO2)[C@@H](CO)O1 (stereo not given in full), the IC50 (Raji; Homo sapiens, Raji) is reported as 255 µM and 60.3 µg/mL.

C[C@@H]1O[C@@H](CC2=CCCCC2)C=C[C@]12CO2 was tested, and the IC50 (LFCl2A; [1]) was 128 µM and the IC50 (LFCl2A; lfcl2a) was 28.3 µg/mL.

In the case of C[C@@H]1O[C@@H](CC2=CCCCC2)C=C[C@@]12CO2, the IC50 (LFCl2A; [1]) is reported as 155 µM and the IC50 (LFCl2A; lfcl2a) is reported as 34.3 µg/mL.

In the case of CC/C=C\C/C=C\C/C=C\C/C=C\C/C=C\C/C=C\CCC(=O)OC[C@H]1O[C@H](C2CCCC=C2C)C=C[C@@]12CO2 (stereo in doubt; 15), the IC50 (Raji; raji) is reported as 62 µM.

For CC/C=C\C/C=C\C/C=C\C/C=C\C/C=C\C/C=C\CCC(=O)OC[C@H]1O[C@H](C2CCCC=C2C)C=C[C@@]12CO2 (stereo in doubt; 16), the IC50 (Raji; Homo sapiens, Raji) was 58 µM and 0.106 µg/mL.

Work on CCCCC/C=C\C/C=C\C/C=C\C/C=C\CCCC(=O)OC[C@H]1O[C@H](C2CCCC=C2C)C=C[C@@]12CO2 (stereo in doubt; 17) yielded an IC50 (Raji; raji) of 66 µM.

CCCCC/C=C\C/C=C\C/C=C\C/C=C\CCCC(=O)OC[C@H]1O[C@H](C2CCCC=C2C)C=C[C@@]12CO2 (stereo in doubt; 18) showed an IC50 (Raji; raji) of 147 µM.

O=C(O)CCCc1ccc(N(CCCl)CCCl)cc1 [CHLORAMBUCIL] gave an IC50 (Raji; Homo sapiens, Raji) of 298 µM.
